{"source": "patent US20080242674A1", "about": "“Medicine For Prevention or Treatment of Frequent Urination or Urinary Incontinence” (priority 2004, published 2008)", "key": {"anesthetized rats": {"system": "anesthetized rats", "test": "Intra-bladder pressure measurement in anesthetized rat", "type": "in vivo", "details": "male rats, urethane anesthesia, after midodorin hydrochloride 3 mg/kg iv, isoproterenol 10 mg/kg iv = 100%", "text": "Male rats were anesthetized with urethane. To each rat, tracheal and femoral vein cannulas were inserted. After midline abdominal incision, the ureter on either side was ligated and cut at the proximal end of the ligated portion. After the urethra was ligated, a cannula was inserted into the urinary bladder through the top of the bladder dome. Through a three-way connecter, warmed saline was instilled to adjust the intra-bladder pressure to about 10 cmH2O. The other end of the bladder cannula was connected to a pressure transducer, and intra-bladder pressure was measured. Three mg/kg of midodorin hydrochloride was injected through the femoral vein cannula. Ten minutes after the midodorin hydrochloride injection, tamsulosin hydrochloride (5 mg/kg, iv) or compound 1 (10 mg/kg, iv) was intravenously injected, and the decreasing effect by single administration of each drug was evaluated. Next, 15 minutes after administration, compound 1 (10 mg/kg, iv) was intravenously injected to the animal treated with tamsulosin hydrochloride (5 mg/kg, iv) to evaluate the combinational effect. At the last, 10 mg/kg of isoproterenol was intravenously injected, and the maximum decreasing effect was set as 100% ."}, "[1]": {"system": "acetic acid-stimulated rats", "test": "Micturition interval measurement in acetic acid-stimulated rat", "type": "in vivo", "details": "female rats, urethane anesthesia, 0.25% acetic acid instilled into the bladder, 30 minutes after administration", "text": "Female rats were anesthetized with urethane. After the midline abdominal was incised, and the ureter on either side was ligated and cut, the renal end was kept open. A cannula was inserted into the urinary bladder through the top of the bladder dome and connected to a three-way connecter to establish routes for the intra-bladder pressure measurement and instillation into the bladder. The other end of the bladder cannula was connected to a pressure transducer, and intra-bladder pressure was measured. Saline was continuously instilled into the bladder (3.6 mL/hr) . […] After stable micturition intervals were obtained, silodosin (0.03 mg/kg), (−)-2-[4-[2-[[(1S, 2R)-2-hydroxy-2-(4-hydroxyphenyl)-1-methylethyl]amino]ethyl]-2,5-dimethylphenoxy] acetic acid (hereinafter referred to as “compound 2”) (1 mg/kg) or both of silodosin (0.03 mg/kg) and compound 2 (1 mg/kg) were injected through a femoral venous cannula respectively, and time from when a micturition occurred till when the next micturition was induced (micturition interval) was measured. Mean micturition intervals for 2 times before each drug administration and for all micturition which occurred in 30 minutes after the drug administration were calculated, and the change to the mean value before administration was evaluated. […]"}}, "note": "Where a name gives a salt, the structure may show the parent alone."}
{"compound": "CCOC(=O)COc1cc(C)c(CCN[C@@H](C)[C@H](O)c2ccc(O)cc2)cc1C", "note": "[compound 1, ethyl (−)-2-[4-[2-[[(1S, 2R) -2-hydroxy-2-(4-hydroxyphenyl)1-methylethyl]amino]ethyl]-2,5-dimethyl-phenoxy]acetate]", "values": [{"measurement": "effect decreasing the intra-bladder pressure (percentage of the maximum decreasing effect by isoproterenol)", "setting": "anesthetized rats; compound 1 10 mg/kg iv alone", "value": 37, "unit": "%"}]}
{"compound": "Cc1cc(OCC(=O)O)c(C)cc1CCN[C@@H](C)[C@H](O)c1ccc(O)cc1", "note": "[compound 2, (−)-2-[4-[2-[[(1S, 2R)-2-hydroxy-2-(4-hydroxyphenyl)-1-methylethyl]amino]ethyl]-2,5-dimethylphenoxy] acetic acid]", "values": [{"measurement": "change in the micturition interval (percentage of the mean value before administration)", "setting": "[1]; compound 2 1 mg/kg iv alone", "value": 116.3, "unit": "%"}]}
{"compound": "C[C@H](Cc1cc2c(c(C(N)=O)c1)N(CCCO)CC2)NCCOc1ccccc1OCC(F)(F)F", "note": "[silodosin]", "values": [{"measurement": "change in the micturition interval (percentage of the mean value before administration)", "setting": "[1]; silodosin 0.03 mg/kg iv alone", "value": 115.2, "unit": "%"}]}
{"compound": "CCOc1ccccc1OCCN[C@H](C)Cc1ccc(OC)c(S(N)(=O)=O)c1", "note": "[tamsulosin hydrochloride]", "values": [{"measurement": "effect decreasing the intra-bladder pressure (percentage of the maximum decreasing effect by isoproterenol)", "setting": "anesthetized rats; tamsulosin hydrochloride 5 mg/kg iv alone", "value": 26, "unit": "%"}]}
